According to patent US20030139469A1, “Use of inhibitors of soluble epoxide hydrolase to inhibit vascular smooth muscle cell proliferation” (THE REGENTS OF THE UNIVERSITY OF CALIFORNIA, priority 2002, published 2003):

Legend:
human VSM cells [1] = assay: [3H]thymidine incorporation into DNA, human VSM cells; assay type: cell-based; settings: for inhibition of DNA synthesis ([3H]thymidine incorporation): CDU 1.0 to 20 μM
Experimental: Human VSM cells were grown to 80-90% confluence and serum-starved (except where indicated) for 1 day.
FIG. 1a. Immediately following PDGF-BB (30 ng/ml) stimulation, CDU or DMSO vehicle (as a control, indicated on chart as “cont”) was added at the concentrations indicated. After 18 h, thymidine incorporation into DNA was assessed as described in Example 1.
FIG. 1b. Human VSM cells grown and challenged as in FIG. 1a, but the cells were stimulated with 10% serum rather than with PDGF-BB.
Human VSM cells were grown to 80-90% confluence and serum-starved as in FIG. 1. PDGF-BB (30 ng/ml) was added to all but control wells, followed immediately by the addition of mixed EETs and/or CDU at the concentrations indicated of total EETs. [^3H]Thymidine was added for the last 6 h of incubation, and its incorporation into DNA was assessed as described in Materials and Methods. Error bars represent SD; *p<0.05 compared to PDGF alone. Data shown are representative of two independent experiments.
Human VSM cells were grown to 80-90% confluence and serum-starved as in FIG. 1. PDGF-BB (30 ng/ml) was added to all but control wells and, at the times indicated after PDGF addition, CDU (10 μM) was added. At time=0, CDU and PDGF were added simultaneously. [^3H]Thymidine was added for the last 6 h of incubation and its incorporation into DNA was assessed as described in Example 1. Error bars represent SD; *p<0.05 compared to PDGF alone. Data shown are representative of three independent experiments.
Cell Culture. Human aortic smooth muscle cells were obtained from Clonetics (San Diego Calif.) at passage 3 and were maintained in MCBD 131 media supplemented with 2.5% FBS, 5 mg/L bovine insulin, 2 ug/L human recombinant EGF, 1 ug/L human recombinant PDGF-BB (“PDGF” is platelet derived growth factor, which is composed of a dimer of two chains, the A chain and the B chain, “PDGF-BB is a 24.3 kD homodimer of two B chains), 100 u/ml of penicillin, 100 u/ml streptomycin, and 2.5 ug/ml amphotericin B. The cells were growth-arrested by placing them in quiescence medium containing MCDB 131 medium, 20 mM HEPES (pH 7.4), 5 mg/ml transferrin, 0.5 mg/ml BSA, 50 U/ml penicillin, 50 U/ml streptomycin, and 2.5 ug/ml amphotericin B. Quiescence medium was changed daily for 1-2 days before each experiment. HL-60 cells were obtained from ATCC or from D. Hyde (UC Davis). HL-60 cells were cultured at cell densities between 2×10^5 and 8×10^5 cells/mL in RPMI-1640 (Mediatech) supplemented with 10% fetal calf serum.
Proliferation Assays. [^3H]thymidine incorporation assays were performed. […] At the indicated times, the number of cells in the plate was calculated by subjecting the cells to trypsinization and the cell density quantitated by light microscopy using a hemocytometer.

human VSM cells [2] = assay: direct counting of trypsinized VSM cells by hemocytometer; assay type: cell-based; settings: 12 μM, 10% serum, FIG. 1c
Experimental: FIG. 1c. CDU (12 μM) or an equal volume of DMSO vehicle (as a control) was added concomitantly with 10% serum and the cells were counted by hemocytometer after trypsinization. Proliferation Assays. [^3H]thymidine incorporation assays were performed. To evaluate proliferation of suspension cells, cells were resuspended at 2×10^5 cells/mL in culture medium and the medium supplemented with the compound of interest or the corresponding vehicle. At the indicated times, cell density was estimated using light microscopy and a hemocytometer. To directly evaluate the proliferation of adherent cells, 2×10^4 cells were plated in a 35 mm culture dish and allowed to adhere overnight. The medium was then supplemented with the compound of interest or the corresponding vehicle. At the indicated times, the number of cells in the plate was calculated by subjecting the cells to trypsinization and the cell density quantitated by light microscopy using a hemocytometer.

Met-1 breast tumor cells = assay: Met-1 breast tumor cell proliferation; assay type: cell-based; settings: up to 20 μM
human VSM cells [3] = assay: trypan blue exclusion, VSM cells; assay type: cell-based; settings: 12 μM
Experimental: Evaluation of Cell Membrane Integrity and Toxicity. To evaluate the toxicity of compounds, as indicated by cellular trypan blue permeability, cells were plated in 35 mm dishes. After two days, the medium in the dish was replaced with fresh medium supplemented with the compound of interest or vehicle. At the indicated time post-treatment, the supernatant was removed and adherent cells were removed using trypsin. After dislodging the adherent cells, the cell suspension was pooled with the supernatant and centrifuged. The resulting cell pellet was resuspended and a trypan blue solution (0.4% in normal saline) was added to the aliquot. After incubating for approximately 5 minutes, the sample was evaluated by light microscopy. To evaluate lactate dehydrogenase (LDH) release, cells were harvested and plated onto 24 well plates and serum starved for one to two days. Test compounds were added and after 65 hours, media was removed for measurement of LDH activity. LDH activity was determined by NADH oxidation using Sigma Tox-7 in vitro toxicology kit and reported as the amount of LDH activity in the media.

A549 lung cancer cells = assay: MTT assay A549; assay type: cell-based; settings: up to 40 μM
HT-29 colon cancer cells = assay: MTT assay HT-29; assay type: cell-based; settings: up to 40 μM
[4] = tested on: HTB-30 breast cancer cells; assay: MTT assay HTB-30; assay type: cell-based; settings: up to 40 μM
cyclin D1 = assay: Western blot cyclin D1 in VSM cells; assay type: cell-based, human; settings: 10 μM, PDGF-BB, 6 to 18 h, vs DMSO vehicle, FIG. 7
Experimental: (§1) Human VSM cells were grown to 80-90% confluence and serum-starved as in FIG. 1. […] Data shown are representative of at least two independent experiments. Western Blots. After treatment with appropriate compounds for the indicated times, cells were lysed, protein concentrations were determined by the Lowry method, and equal protein quantities were electrophoresed and Western blotted.

cyclin E = assay: Western blot cyclin E in VSM cells; assay type: cell-based, human; settings: 10 μM, PDGF-BB, 6 to 18 h, FIG. 7
Experimental: as §1

[5] = target: soluble epoxide hydrolase (sEH); settings: cited from earlier work

CCCCCCCCCCCCNC(=O)NC1CCCCC1 [CDU, 1-cyclohexyl-3-dodecyl urea]
time of CDU addition after PDGF with most profound inhibition (human VSM cells [1]; 10 μM CDU, PDGF-BB 30 ng/ml, FIG. 5): 4 h
inhibition of DNA synthesis ([3H]thymidine incorporation) (human VSM cells [1]; 10% serum stimulated, FIG. 1b): dose-dependent inhibition of DNA synthesis
inhibition of DNA synthesis ([3H]thymidine incorporation) (human VSM cells [1]; PDGF-BB (30 ng/ml) stimulated, 18 h, FIG. 1a): dose-dependent inhibition of DNA synthesis
PDGF-stimulated [3H]thymidine incorporation (human VSM cells [1]; PDGF-BB, EETs 5 to 10 μM total, CDU 2.5 and 10 μM, separately or together, FIG. 3): inhibition of PDGF-stimulated [^3H]thymidine incorporation
cell proliferation by direct counting of trypsinized cells (human VSM cells [2]): Inhibition of cell proliferation
effect on Met-1 cells (Met-1 breast tumor cells): lack of effect
cells stained blue (trypan blue) (human VSM cells [3]; 8 h): 3.4%
cells stained blue (trypan blue) (human VSM cells [3]; 24 h): 3.0%
toxicity, MTT assay (A549 lung cancer cells): no toxicity observed
toxicity, MTT assay (HT-29 colon cancer cells): no toxicity observed
toxicity, MTT assay [4]: no toxicity observed
induction of cyclin D1 levels (cyclin D1): profoundly decreased induction
effect on cyclin E levels (cyclin E): minimal effect
Ki [5]: 0.02 ± 0.002 µM
